Test results published in patent US8927717B1, “Thiochromeno[2,3-c]quinolin-12-one derivatives, preparation method and application thereof” (National Defense Medical Center, priority 2014, dated 2015).

How the values were obtained:
Assay type in all cases: cell-based
MDA-MB-435 = details: Melanoma; 10^−5 molar; 48 hours; SRB
SK-MEL-28 = system: SK-MEL-28
UACC-62 = system: UACC-62
OVCAR-5 = system: OVCAR-5
OVCAR-8 = system: OVCAR-8
NCI/ADR-RES = system: NCI/ADR-RES
786-0 = system: 786-0
A498 = system: A498
ACHN = system: ACHN
RXF 393 = system: RXF 393
SN12C = system: SN12C
TK-10 = system: TK-10
UO-31 = system: UO-31
DU-145 = system: DU-145
MCF7 = system: MCF7
MDA-MB-231/ATCC = system: MDA-MB-231/ATCC
HS 578T = system: HS 578T
T-47D = details: Breast cancer; 10^−5 molar; 48 hours; SRB
MDA-MB-486 = system: MDA-MB-486
60 cancer cell lines = assay: NCI 60-cell screen, SRB, whole panel (mean, delta, range)
[1] = Homo sapiens, SK-MEL-28, five dose
[2] = Melanoma, 10^−5 molar, 48 hours, SRB
[3] = Ovarian cancer, 10^−5 molar, 48 hours, SRB
[4] = Renal cancer, 10^−5 molar, 48 hours, SRB
[5] = Breast cancer, 10^−5 molar, 48 hours, SRB

**Q.** For `CCNc1nc2ccccc2c2c(=O)c3cc(Cl)ccc3sc12` [Compound N2, 10-Chloro-6-ethylamino-12H-thiochromeno[2,3-c]quinolin-12-one], which “Growth percent MDA-MB-435” value (MDA-MB-435) is on record?
**A.** 80.67%

**Q.** And the GI50 (SK-MEL-28; [1])?
**A.** > 100 µM

**Q.** And the LC50 (SK-MEL-28; [1])?
**A.** > 100 µM

**Q.** What about the “Growth percent SK-MEL-28” value (SK-MEL-28; [2]) of the same compound?
**A.** 93.07%

**Q.** What about the TGI (SK-MEL-28; SK-MEL-28, five dose) of the same compound?
**A.** >100 µM

**Q.** What about the GI50 (UACC-62; Homo sapiens, UACC-62, five dose) of the same compound?
**A.** 22.3 µM

**Q.** And the CC50 (UACC-62; Homo sapiens, UACC-62, five dose, read-out: LC50 (the source's name))?
**A.** > 100 µM

**Q.** And the “Growth percent UACC-62” value (UACC-62; [2])?
**A.** 69.06%

**Q.** And the TGI (UACC-62; UACC-62, five dose)?
**A.** >100 µM

**Q.** What about the GI50 (OVCAR-5; Homo sapiens, OVCAR-5, five dose) of the same compound?
**A.** > 100 µM

**Q.** And the CC50 (OVCAR-5; Homo sapiens, OVCAR-5, five dose, read-out: LC50 (the source's name))?
**A.** > 100 µM

**Q.** What about the TGI (OVCAR-5; OVCAR-5, five dose) of the same compound?
**A.** >100 µM

**Q.** And the “Growth percent OVCAR-5” value (OVCAR-5; [3])?
**A.** 92.93%

**Q.** And the GI50 (OVCAR-8; Homo sapiens, OVCAR-8, five dose)?
**A.** 17.7 µM

**Q.** And the CC50 (OVCAR-8; Homo sapiens, OVCAR-8, five dose, read-out: LC50 (the source's name))?
**A.** > 100 µM

**Q.** What about the TGI (OVCAR-8; OVCAR-8, five dose) of the same compound?
**A.** >100 µM

**Q.** And the “Growth percent OVCAR-8” value (OVCAR-8; [3])?
**A.** 62.54%

**Q.** And the GI50 (NCI/ADR-RES; Homo sapiens, NCI/ADR-RES, five dose)?
**A.** 33.5 µM

**Q.** What about the CC50 (NCI/ADR-RES; Homo sapiens, NCI/ADR-RES, five dose, read-out: LC50 (the source's name)) of the same compound?
**A.** > 100 µM

**Q.** What about the TGI (NCI/ADR-RES; NCI/ADR-RES, five dose) of the same compound?
**A.** >100 µM

**Q.** What about the “Growth percent NCI/ADR-RES” value (NCI/ADR-RES; [3]) of the same compound?
**A.** 88.61%

**Q.** And the TGI (786-0; 786-0, five dose)?
**A.** 33.8 µM

**Q.** And the GI50 (786-0; Homo sapiens, 786-0, five dose)?
**A.** 10.5 µM

**Q.** And the CC50 (786-0; Homo sapiens, 786-0, five dose, read-out: LC50 (the source's name))?
**A.** > 100 µM

**Q.** And the “Growth percent 786-0” value (786-0; [4])?
**A.** 23.87%

**Q.** And the TGI (A498; A498, five dose)?
**A.** 91.3 µM

**Q.** What about the GI50 (A498; Homo sapiens, A498, five dose) of the same compound?
**A.** 15.3 µM

**Q.** What about the CC50 (A498; Homo sapiens, A498, five dose, read-out: LC50 (the source's name)) of the same compound?
**A.** > 100 µM

**Q.** And the “Growth percent A498” value (A498; [4])?
**A.** 61.02%

**Q.** What about the TGI (ACHN; ACHN, five dose) of the same compound?
**A.** >100 µM

**Q.** What about the GI50 (ACHN; Homo sapiens, ACHN, five dose) of the same compound?
**A.** 8.66 µM

**Q.** What about the CC50 (ACHN; Homo sapiens, ACHN, five dose, read-out: LC50 (the source's name)) of the same compound?
**A.** > 100 µM

**Q.** And the “Growth percent ACHN” value (ACHN; [4])?
**A.** 43.77%

**Q.** What about the GI50 (RXF 393; Homo sapiens, RXF 393, five dose) of the same compound?
**A.** 13.1 µM

**Q.** What about the CC50 (RXF 393; Homo sapiens, RXF 393, five dose, read-out: LC50 (the source's name)) of the same compound?
**A.** > 100 µM

**Q.** And the TGI (RXF 393; RXF 393, five dose)?
**A.** 44.6 µM

**Q.** And the “Growth percent RXF 393” value (RXF 393; [4])?
**A.** 34.56%

**Q.** What about the GI50 (SN12C; Homo sapiens, SN12C, five dose) of the same compound?
**A.** 75.3 µM

**Q.** What about the CC50 (SN12C; Homo sapiens, SN12C, five dose, read-out: LC50 (the source's name)) of the same compound?
**A.** > 100 µM

**Q.** What about the “Growth percent SN12C” value (SN12C; [4]) of the same compound?
**A.** 84.57%

**Q.** What about the TGI (SN12C; SN12C, five dose) of the same compound?
**A.** >100 µM

**Q.** What about the CC50 (TK-10; Homo sapiens, TK-10, five dose, read-out: LC50 (the source's name)) of the same compound?
**A.** > 100 µM

**Q.** And the “Growth percent TK-10” value (TK-10; [4])?
**A.** 47.11%

**Q.** And the GI50 (UO-31; Homo sapiens, UO-31, five dose)?
**A.** 29.4 µM

**Q.** What about the CC50 (UO-31; Homo sapiens, UO-31, five dose, read-out: LC50 (the source's name)) of the same compound?
**A.** > 100 µM

**Q.** And the “Growth percent UO-31” value (UO-31; [4])?
**A.** 32.06%

**Q.** And the TGI (UO-31; UO-31, five dose)?
**A.** >100 µM

**Q.** And the TGI (DU-145; DU-145, five dose)?
**A.** >100 µM

**Q.** What about the GI50 (DU-145; Homo sapiens, DU-145, five dose) of the same compound?
**A.** > 100 µM

**Q.** What about the CC50 (DU-145; Homo sapiens, DU-145, five dose, read-out: LC50 (the source's name)) of the same compound?
**A.** > 100 µM

**Q.** What about the “Growth percent DU-145” value (DU-145; Prostate cancer, 10^−5 molar, 48 hours, SRB) of the same compound?
**A.** 87.67%

**Q.** What about the “Growth percent MCF7 (Table 2: MCF)” value (MCF7; [5]) of the same compound?
**A.** 17.54%

**Q.** What about the CC50 (MCF7; Homo sapiens, MCF7, five dose, read-out: LC50 (the source's name)) of the same compound?
**A.** > 100 µM

**Q.** And the TGI (MCF7; MCF7, five dose)?
**A.** >100 µM

**Q.** And the “Growth percent MDA-MB-231/ATCC” value (MDA-MB-231/ATCC; [5])?
**A.** 48.66%

**Q.** And the GI50 (MDA-MB-231/ATCC; Homo sapiens, MDA-MB-231/ATCC, five dose)?
**A.** 10.1 µM

**Q.** What about the CC50 (MDA-MB-231/ATCC; Homo sapiens, MDA-MB-231/ATCC, five dose, read-out: LC50 (the source's name)) of the same compound?
**A.** > 100 µM

**Q.** And the TGI (MDA-MB-231/ATCC; MDA-MB-231/ATCC, five dose)?
**A.** 65.5 µM

**Q.** What about the “Growth percent HS 578T” value (HS 578T; [5]) of the same compound?
**A.** 36.37%

**Q.** And the TGI (HS 578T; HS 578T, five dose)?
**A.** 65.5 µM

**Q.** And the GI50 (HS 578T; Homo sapiens, HS 578T, five dose)?
**A.** 9.64 µM

**Q.** And the CC50 (HS 578T; Homo sapiens, HS 578T, five dose, read-out: LC50 (the source's name))?
**A.** > 100 µM

**Q.** And the “Growth percent T-47D” value (T-47D)?
**A.** 38.28%

**Q.** What about the GI50 (MDA-MB-486; 60 cell, MDA-MB-486, five dose) of the same compound?
**A.** 0.04 µM

**Q.** And the CC50 (MDA-MB-486; 60 cell, MDA-MB-486, five dose, read-out: LC50 (the source's name))?
**A.** > 100 µM

**Q.** And the “Growth percent MDA-MB-486” value (MDA-MB-486; [5])?
**A.** 26.29%

**Q.** And the TGI (MDA-MB-486; MDA-MB-486, five dose)?
**A.** >100 µM

**Q.** And the GI50 (60 cancer cell lines; 60 cell, mean over panel, five dose)?
**A.** 28.8 µM

**Q.** And the CC50 (60 cancer cell lines; 60 cell, mean over panel, five dose, read-out: LC50, Mean)?
**A.** 100 µM

**Q.** What about the “Growth percent, Delta” value (60 cancer cell lines; delta over the cell panel, 10^−5 molar, 48 hours, SRB) of the same compound?
**A.** 66.04%

**Q.** What about the “TGI, Mean” value (60 cancer cell lines; mean over panel, five dose) of the same compound?
**A.** 83.18 µM

**Q.** What about the “Growth percent, Mean” value (60 cancer cell lines; mean over the cell panel, 10^−5 molar, 48 hours, SRB) of the same compound?
**A.** 65.97%

**Q.** What about the “Growth percent, Range” value (60 cancer cell lines; range over the cell panel, 10^−5 molar, 48 hours, SRB) of the same compound?
**A.** 103.40%
